This note sets out measurements from article PMC7879681, “Baicalein inhibits heparin-induced Tau aggregation by initializing non-toxic Tau oligomer formation” (Cell Communication and Signaling : CCS, 2021).

In the experiment the target is T1, full-length Tau (hTau40WT) (Homo sapiens, UniProt P10636).
T1 construct: gene MAPT; recombinant wild type human full-length Tau (hTau40WT)
Put plainly: ThS fluorescence inhibition of heparin-induced aggregation of purified Tau; supported by ANS, SDS-PAGE, CD, TEM; dissolves preformed fibrils (DC50 […]). In kind it is biochemical.

T1 sequence (P10636 2-441 isoform P10636-8): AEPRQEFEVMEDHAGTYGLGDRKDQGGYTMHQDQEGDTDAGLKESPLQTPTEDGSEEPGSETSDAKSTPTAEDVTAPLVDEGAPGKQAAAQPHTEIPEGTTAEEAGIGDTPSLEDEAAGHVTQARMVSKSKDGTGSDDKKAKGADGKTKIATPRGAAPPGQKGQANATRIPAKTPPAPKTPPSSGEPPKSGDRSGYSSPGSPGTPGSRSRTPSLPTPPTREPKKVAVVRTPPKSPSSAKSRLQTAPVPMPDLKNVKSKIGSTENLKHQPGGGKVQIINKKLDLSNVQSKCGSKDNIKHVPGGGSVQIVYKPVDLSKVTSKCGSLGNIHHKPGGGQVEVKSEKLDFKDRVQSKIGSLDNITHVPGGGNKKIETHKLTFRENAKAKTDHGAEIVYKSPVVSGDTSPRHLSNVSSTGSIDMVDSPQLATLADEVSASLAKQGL

The molecule `O=c1cc(-c2ccccc2)oc2cc(O)c(O)c(O)c12` [Baicalein] yielded an IC50 of 27.7 µM.
